Test results: US10004702B2, “Linear guanidine derivatives, methods of preparation and uses thereof” (LEAD DISCOVERY SIENA S.R.L., priority 2014, dated 2018)
In brackets after ≈: the same amount, converted by molar mass.

Columns and labels:
Assay type in all cases: cell-based
[1] = test system: Burkholderia cepacia RII; test: Bactericidal activity (MBC)
[2] = test system: Achromobacter xylosoxidans AX 22; test: Bactericidal activity (MBC); settings: AX22
[3] = test system: Gram-positive and Gram-negative organisms; test: Antimicrobial susceptibility testing, overall statements on the panel; settings: overall comparison over the tested strains
Description: Bacterial strains were obtained from the ATCC or CCUG culture collections or present in the authors' collection of clinical isolates. Compounds were re-suspended in dimethyl sulfoxyde (DMSO) at a final concentration of 10 mg/ml and subsequently diluted in the culture medium. The minimum inhibitory concentrations (MICs) of the compounds of the invention were determined using the microdilution broth method using Mueller-Hinton broth as recommended by the Clinical Laboratory Standards Institute (CLSI [11]). Bacterial inoculum was 5×10^4 CFU/well. MICs were recorded after 18-24 hours incubation at 35-37° C.

[4] = test system: Pseudomonas aeruginosa ATCC 27853; test: Bactericidal activity (MBC); settings: ATCC27853

N=C(N)NCCCCCCCCN(CCCCCCCCNC(=N)NCC1CC1)C(=O)N(CCCCCCCCNC(=N)N)CCCCCCCCNC(=N)NCC1CC1 [Compound 28, 1,3-bis(8-(3-(cyclopropylmethyl)guanidino)octyl)-1,3-bis(8-guanidinooctyl)urea]
MBC [1]: 8 µg/mL (≈ 9.46 µM)
MBC [2]: 8 µg/mL (≈ 9.46 µM)
antimicrobial activity (in words) [3]: most active among the series
antimicrobial spectrum (in words) [3]: active against both Gram-positive and Gram-negative organisms
MBC [4]: 4 µg/mL (≈ 4.73 µM)
